Consider 15 molecules from US5854250A, “N-benzoylamino acid derivatives, pharmaceutical compositions containing them and process of preparing same” (Gyogyszerkutato Intezet KFT, priority 1997, dated 1998).

pIC50: −log10 of the molar value.

Data set [1] has as its system heart-damaging effect of vasopressin. As to conditions: G. Razzaboni et al.; cited from earlier work.
The test system of another data set is brain microsomes. In words: NADPH-dependent peroxidation of brain microsomes. As to conditions: rat brain microsomes, pH 6.8, 15 minutes, read-out: IC50 on brain microsome. Type of data set: biochemical, OFA rats. The protocol: C) The effect of compounds of general formula (I) on the NADPH-dependent peroxidation of brain microsomes
This study was carried out by using the method of T. J. Player and A. A. Morton [J. Neurochem. 37, 422 (1981)].
OFA rats of 3 months age were decapitated and their whole brain was homogenized in ice-cold 0.25M saccharose solution. After centrifuging the homogenate at 15000×g for 10 minutes, the supernatant was decanted and the residue was further centrifuged at 78000×g for 60 minutes. The preparation having a concentration of 10-20 mg of protein/ml was divided to aliquots.
2) Measurement of the microsomal lipid peroxidatiorn
The measurement was carried out at […] in a reaction mixture with the following composition; 0.05M Tris maleate (pH 6.8) buffer, 1.0 mM KH2 SO4, 1.0 mM ADP, 0.2 mM FeCl3 and 0.4 mM NAOPH. NAOPH was not added to the reaction mixture used for determination of the baseline activity. The reaction was initiated […] by adding 0.5 mg of membrane protein and stopped after incubation for 15 minutes. Subsequently, the samples were centrifuged at 950×g for 20 minutes. The thiobarbituric acid-reactive products were determined in 1 ml of supernatant each by using the method of Z. Dunied [Biochem. Pharmacol. 32, 2283 (1983)].

A short description of data set [2]: acute oral toxicity in rats. To be noted: rat, in vivo. The text has this:
The toxicity of the compounds according to the invention was studied in rats.

The next data set deals with small intestine section. In words: ischaemic intestine injury in rats. The class given is in vivo, Male CFY rats. To be noted: Rattus norvegicus; 25 mg/kg oral, 2 hours before the operation; read-out: Inhibition of ischaemia (%). The method, then: A) Effect of compounds of the general formula (I) on the ischaemic intestine injury in rats
The method of D. A. Parks et al. [Surgery 92, 869 (1985)] was employed in these experiments.
Male CFY rats with an average body-weight of 250 g were starved for 24 hours before the surgical intervention but water was allowed ad libitum. The compound to be tested was orally administered in a 25 mg/kg dose by 2 hours before the operation.
The abdominal wall was opened along the median line under ether anaesthesia. The appropriate small intestine section was made ischaemic by ligating both small branches belonging to the pancreatico-duodenal artery. The shame-operated control animals were subjected only to the surgical intervention but their blood vessels were not ligated. The wound was closed and after 2 hours the abdominal cavity of the animals was again opened under ether anaesthesia. The thickened intestinal section was removed, its length and weight were determined and the significance was calculated by Duncan's test [D. B. Duncan: Biometrics 11, 1 (1955)] (with the weights corrected for a length of 20 mm) on the one hand, between the sham-operated and ischaemized vehicle-control animals; and on the other hand, between the ischaemized control animals and ischaemized animals treated with the compound to be tested. The edema-induced weight increase in the intestinal section was expressed as percentage.

Another data set concerns arachidonic acid. In words: iron(II)-dependent peroxidation of arachidonic acid. The class given is biochemical. To be noted: 37° C., in methanol; iron(II) initiated; thiobarbituric acid-reactive products, 535 nm; read-out: IC50 on arachidonic acid substrate. The protocol:
A) The effect of compounds of general formula (I) on the iron(II)-dependentperoxidation of arachidonic acid
The peroxidation of arachidonic acid was measured by using the method of J. M. Braughler [J. Biol. Chem. 262, 10438 (1986)] at 37° C. in methanol. The compound to be tested was investigated at various concentrations. The peroxidation was initiated by adding 10^-4 mol of iron(II) (ferrous) ion (to result in a final volume of 0.5 ml).
(§1) The thiobarbituric acid-reactive products were determined by a modification of J. A. Buege [Meth. Enzymology 52, 302 (1978)] as follows. 0.55 ml of 2% thiobarbituric acid was added to the solution and the samples were boiled for 20 minutes. After cooling down, the samples were diluted with distilled water, then chloroform was added. After centrifuging the tubes at 400×g for 7 minutes, the quantity of the thiobarbituric acid-reactive products was determined in the supernatant by spectrophotometry at 535 nm. The effect of the compound to be tested was characterized by its IC50 value (i.e. the concentration resulting in an 50% inhibition). α-Tocopherol was used as reference compound.

For a further data set, the system named is brain homogenate. As to the kind of experiment: iron(II) ion-dependent peroxidation of brain homogenate. The class given is biochemical, OFA rats. To be noted: rat brain homogenate in Krebs buffer; iron(II) initiated. The method, then:
as §1
B) The effect of compounds of general formula (I) on the iron(II) ion-dependent peroxidation of brain homogenate
The measurement was carried out by using the method of J. M. Braughler [J. Biol. Chem. 262, 10438 (1987)].
In these experiments OFA rats with a body-weight of 150-200 g were decapitated and brain homogenates were prepared in Krebs buffer solution, then the Method A) was followed.

The subject of data set [3] is dopamine level of corpus striatum. As to the kind of experiment: neurotoxicity-inhibiting effect in mice (MPTP-induced dopamine depletion). Type of data set: in vivo, Male C-57 mice. To be noted: for Dopamine level: then 50 mg/kg. The method, then:
C) Study on the neurotoxicity-inhibiting effect in mice This study was carried out by using the method of R. E. Heikkila at al. [Science 224, 1451 (1984)] or by some modification of this method being very suitable to investigate compounds which are potentially active against Parkinson's disease. […] MPTP). […] One hour after the last administration, 40 mg/kg of MPTP and then an additional amount of 50 mg/kg of the compound to be tested were intraperitoneally administered. The animals were killed after 4 days, their brain was removed and the corpus striatum was separated. The dopamine level of corpus striatum was determined by high performance liquid chromatography (HPLC).

Data set [4] deals with reperfusion-induced arrhythmia. In words: reperfusion-induced arrhythmia in rats. The class given is in vivo, male SPRD rats. As to conditions: for Average duration of VT/VF: one hour before, S ± SE/min. The protocol: B) Investigations on the model of reperfusion-induced arrhythmia in rats
In these experiments, the reperfusion-induced arrhythmia was developed in male SPRD rats weighing 400 g in average by using the method Lamontagne et al. [Fundam. Clin. Pharmacol. 3, 671 (1989)].
The chest of artificially respirated animals was opened under pentobarbital anaesthesia and a thread was implanted under the left coronary. After an equilibration period of 15 minutes, in the case of an arterial blood pressure of at least 60 Hgmm, a myocardial ischaemia was induced by ligating the coronary for 5 minutes. This was followed by a reperfusion lasting for 10 minutes. The duration of arrhythmia, ventricular tachycardia (VT) and ventricular fibrillation (VF), respectively, developed within 3 minutes after reperfusion were registered in a lead-II ECG.
The average durations of VT and VF, respectively related to 1 minute were determined and the number of deaths induced by arrhythmia was also registered.
The compound to be tested was orally administered one hour before the experiment.
The statistical data were calculated by using Duncan's test (duration of VT and VF, respectively) or the chi^2 test (number of deaths) [S. Bolton in: "Pharmaceutical Statistics", pages 169-173 (1990), Marcel Dekkar] following the variance analysis in relation to the vehicle control.

The conditions of data set [5]: cited from earlier work.
The next data set deals with lipid peroxidation. As to conditions: J. M. Braughler et al.; cited from earlier work.
Where [6] appears, read: with MPTP treatment (+), 40 mg/kg, compound 100 mg/kg i.p. once daily for 3 days, a p < 0.01, b p < 0.05 vs MPTP control.
Where [7] appears, read: without MPTP treatment (-), 100 mg/kg i.p. once daily for 3 days.

By pIC50 is commonly meant the negative decadic logarithm of the IC50, by convention in mol/L. For orientation: LD50 means the dose expected to kill half of the subjects tested. The low end stands for greater toxicity, the high end for lower toxicity.

On to `COc1cc(C(=O)NCCCCCC(=O)O)ccc1O` [6-(4-hydroxy-3-methoxybenzoyl)aminohexanoic acid], for which, in data set [1], the “activity against the heart-damaging effect of vasopressin” value is “inactive”.

Regarding `O=C(O)CCCCCCCCCCCNC(=O)c1cc(O)ccc1O` [Example 24], the pIC50 was 4.43 with brain microsomes, 4.40 in the data set with arachidonic acid and 5.32 in the data set with brain homogenate. In addition, the LD50 in data set [2] was more than 1000 mg/kg. Also, the inhibition in vivo at 25 mg/kg in the data set with small intestine section is 63%. Also, the “Dopamine level, % of control” value in [3] (with MPTP treatment (+)) is 24%; in [3] (without MPTP treatment (-)), 102%. Also, the results for the Dopamine level in [3] (setting [6]) and in data set [3] (setting [7]) were 4,85 ± 1,7 μg/g tissue and 20,44 ± 0,6 μg/g tissue, respectively.

As for `O=C(O)CCCCCNC(=O)c1cc(O)ccc1O` [Example 25], the pIC50 in the data set on brain microsomes was 4.00; in the data set with arachidonic acid it was 4.82; in the data set with brain homogenate, 4.00. Further, in data set [2], the LD50 was more than 1000 mg/kg. The inhibition in vivo at 25 mg/kg with small intestine section came out at 61%. The “No. of deaths (lethal VT/VF)” value is given as 4/8 in data set [4] (50 mg/kg p.o.) and 1/10 in data set [4] (100 mg/kg p.o., *p < 0.05). The “Average duration of VT/VF” value in data set [4] (50 mg/kg p.o.) came out at 37.3 ± 5.7 S/min; in [4] (100 mg/kg p.o., **p < 0.01), 28.0 ± 5.1 S/min.

Regarding `CCCCCCCCNC(=O)CCCCCNC(=O)c1cc(O)ccc1O` [Example 29], the negative-log IC50 (pIC50) in the data set with brain microsomes was 5.35; in the data set with arachidonic acid it was 4.00; in the data set on brain homogenate, 5.05. In data set [2], this molecule had a median lethal dose (LD50) of more than 1000 mg/kg. For the same molecule, the inhibition in vivo at 25 mg/kg in the data set on small intestine section was determined as 52%.

For `O=C(NCCCCCC(=O)N1CCCC1=O)c1cc(O)ccc1O` [Example 30], the inhibition in vivo at 25 mg/kg with small intestine section came to 70%.

On to `CCOC(=O)CCCCCCCCCCNC(=O)c1cc(O)ccc1O` [Example 31, ethyl 11-[N-(2,5-dihydroxybenzoyl)amino]undecanoate], for which the results for the pIC50 with brain microsomes, in the data set with arachidonic acid and with brain homogenate were 5.18, 4.00 and 4.80, respectively.

In the case of `CCOC(=O)CCCCCCCCCCCNC(=O)c1cc(O)ccc1O` [Example 32], the pIC50 in the data set with brain microsomes was 5.10; with arachidonic acid it was 4.00; in the data set on brain homogenate it was 4.92.

With `O=C(NCCCCCC(=O)N1CCN(CCCc2ccccc2)CC1)c1cc(O)ccc1O` [Example 34], the pIC50 in the data set on brain microsomes is 5.07; in the data set with arachidonic acid, 4.00; in the data set with brain homogenate, 4.40.

Consider `O=C(NCCCCCC(=O)N1CCN(c2cc(N3CCCC3)nc(N3CCCC3)n2)CC1)c1cc(O)ccc1O` [Example 35], for which the pIC50 with brain microsomes is 5.28; with arachidonic acid it was 4.57; with brain homogenate, 5.48. In data set [2], this molecule gave an LD50 of more than 1000 mg/kg. For the same molecule, the inhibition in vivo at 25 mg/kg in the data set with small intestine section came out at 63%.

Turning to `O=C(O)CCCNC(=O)c1cc(O)ccc1O` [Example 36, 4-[N-(2,5-dihydroxybenzoyl)amino]butyric acid], the pIC50 is 4.00 in the data set with brain microsomes, 5.47 with arachidonic acid and 4.00 in the data set on brain homogenate. Moreover, in data set [2], the LD50 is more than 1000 mg/kg. Besides, in the data set on small intestine section, the inhibition in vivo at 25 mg/kg amounted to 76%. Further, the entries for the “Dopamine level, % of control” value in [3] (with MPTP treatment (+)) and in data set [3] (without MPTP treatment (-)) were 33% and 103%, respectively. The Dopamine level in data set [3] (setting [6]) was 6,68 ± 1,0 μg/g tissue; in data set [3] (setting [7]) it was 20,67 ± 0,5 μg/g tissue. For the same molecule, the “No. of deaths (lethal VT/VF)” value was 4/8 in [4] (50 mg/kg p.o.) and 0/10 in [4] (100 mg/kg p.o., *p < 0.05). Besides, the “Average duration of VT/VF” value in data set [4] (50 mg/kg p.o.) came to 33.0 ± 9.9 S/min; in data set [4] (100 mg/kg p.o., **p < 0.01), 20.6 ± 6.3 S/min.

In the case of `O=C(O)CCCCNC(=O)c1cc(O)ccc1O` [Example 37], the pIC50 is 4.00 with brain microsomes, 4.51 with arachidonic acid and 4.00 with brain homogenate. This molecule gave an LD50 in data set [2] of more than 1000 mg/kg. The inhibition in vivo at 25 mg/kg with small intestine section stood at 73%.

As to `COC(=O)CCCNC(=O)c1cc(O)ccc1O` [Example 40, methyl 4-[N-(2,5-dihydroxybenzoyl)amino]butanoate], the inhibition in vivo at 25 mg/kg in the data set with small intestine section stood at 72%.

As for `COC(=O)CCCCCNC(=O)c1cc(O)ccc1O` [Example 41, Methyl 6-{[N-(2,5-dihydroxybenzoyl)amino]hexanoate}], the inhibition in vivo at 25 mg/kg with small intestine section turned out to be 75%.

On to `C[C@@H]1C[C@H]2[C@@H]3CCC4=CC(=O)C=C[C@]4(C)C3=CC[C@]2(C)[C@H]1C(=O)CN1CCN(c2cc(N3CCCC3)nc(N3CCCC3)n2)CC1` [Example U74006F], for which the in vivo activity result in [5] is “proven”. Besides, in the data set with lipid peroxidation, the “inhibition of lipid peroxidation” value is given as “strongly inhibited”.

Regarding `Cc1c(C)c2c(c(C)c1O)CCC(C)(CCCC(C)CCCC(C)CCCC(C)C)O2` (stereo not drawn) [α-Tocopherol, reference compound], the values for the pIC50 in the data set on brain microsomes, in the data set on arachidonic acid and in the data set on brain homogenate were less than 4.00, 5.82 and 5.15, respectively. Besides, the “Average duration of VT/VF” value in data set [4] (100 mg/kg p.o., **p < 0.01) amounted to 33.1 ± 7.1 S/min; in data set [4] (250 mg/kg p.o., **p < 0.01) it was 27.2 ± 7.1 S/min. Besides, the “No. of deaths (lethal VT/VF)” value in data set [4] (100 mg/kg p.o., *p < 0.05) was 4/8; in data set [4] (250 mg/kg p.o., *p < 0.05), 1/8.
